In PMC9599717, “The Multicellular Effects of VDAC1 N-Terminal-Derived Peptide” (Biomolecules, 2022):

Test system: U-87MG cells
Assay: Cell migration / wound-healing assay
Assay type: cell-based, human
Conditions: 20 μM peptide, 24 h, untreated cells 64%
Description: color was read in a spectrophotometer at 680 nm. A standard curve was obtained using D-glucose (0–20 µg) subjected to anthrone in a sulfuric acid treatment, as described above.
Lysosomal vacuolation observed with acridine orange (AO) staining
U-87MG cells were treated with D-Δ(1-18)N-Ter-Antp peptide in serum-free DMEM media for 6 h at 37℃, incubated with acridine orange (1 μg/ml) for 15 min, visualized by fluorescence microscopy (Olympus LX2 - KSP, Tokyo, Japan), and images were captured with a CCD camera. About 200 cells were counted for each […]
Cell migration assay/wound-healing assay
U-87MG cells were seeded in 12-well plates and cultured. When reaching around 90% confluence, a straight scratch was mechanically made with a sterile 10-µl pipette tip. The cells were treated with various concentrations of D-Δ(1-18)N-Ter-Antp peptide in serum-free DMEM media for the indicated time points. The images of the wounds were captured at different time points using a digital camera mounted on a microscope to follow the position of the migrating front at defined times. […]
Summary of the peptide concentrations (µM) required for half-maximal cell death activity (IC50) in various cancer cell lines. […] Cell death was determined by PI staining and FACS analysis. […]

19-FTKGYGFGL-26- RQIKIWFQNRRMKWKK [D-Δ(1-18)N-Ter-Antp]
Gap closed in wound-healing assay: 17%
